No end group written: not given here.
Assays:
HIV-1IIIB = assay: HIV-1 antiviral assay in CEM-SS cells (MTS readout); assay type: cell-based
[1] = system: hepatitis B virus (HBV) ayw strain; assay: HBV experimental assay system, HepG2-2.2.15, TaqMan PCR of secreted HBV DNA; assay type: cell-based; conditions: 10 micrograms per ml, six days, HBV DNA by TaqMan PCR
From the text: HepG2-2.2.15 is a stable cell line containing the hepatitis B virus (HBV) ayw strain genome (ATCC Cat. No. CRL-11997). Antiviral compounds blocking any late step of viral replication such as transcription, translation, pregenome encapsidation, reverse transcription, particle assembly and release can be identified and characterized using this cell line. In this assay, an active compound will reduce the production of secreted HBV from cells, measured by utilizing real time quantitative PCR (TaqMan) assay to directly and accurately measure HBV DNA copies.
HepG2-2.2.15 cells were plated in 96-well microtiter plates. After 16-24 hours the confluent monolayer of HepG2-2.2.15 cells was washed and the medium was replaced with complete medium containing test peptides—10 micrograms per ml—in duplicate. […] Six days following the initial administration of the peptides, the cell culture supernatants was collected, treated with pronase and DNAse and then used in a real-time quantitative TaqMan PCR assay. The PCR-amplified HBV DNA was detected in real-time by monitoring increases in fluorescence signals that result from the exonucleolytic degradation of a quenched fluorescence probe molecule that hybridizes to the mplified HBV DNA. […] Antiviral activity was calculated from the reduction in HBV DNA levels (% virus control). […]

RAW 264.7 cells = assay: Phagocytosis assay (Fluorescein-labeled Escherichia coli, flow cytometry); assay type: cell-based, mouse; conditions: 10 micrograms per ml, 30 min preincubation, 60 min ingestion
spleen cells = assay: Th1/Th2 cytokine profiling assay (Ovalbumin-restimulated spleen cells, CBA kit); assay type: cell-based; conditions: 10 micrograms per ml; spleen cells of Ovalbumin-immunized Balb/c mice, restimulated with Ovalbumin 10 micrograms/ml; 72 hours
[2] = system: Primary Human endothelial cells (HUVEC); assay: Endothelial cell migration assay; assay type: cell-based; conditions: 10 micrograms per ml, 22 hours
HCMV strain AD169 = assay: HCMV plaque assay in MRC-5 cells; conditions: for inhibition of HCMV plaque formation as compared to the virus control experiment: 10 micrograms per ml, 7-10 days

| Compound | antiviral activity of positive control compounds (HIV-1) (HIV-1IIIB) | inhibition of HBV replication as compared to the virus control infection [1] [%] | effect (increase) on the phagocytic activity of murine macrophages (RAW 264.7 cells) | IFNγ spleen cells; TH1 response (% of control) (spleen cells) | IL-2 spleen cells (% of control) (spleen cells) | IL-4 spleen cells; TH2 response (% of control) (spleen cells) | IL-5 spleen cells; TH2 response (% of control) (spleen cells) | TNF-a spleen cells; TH1 response (% of control) (spleen cells) | inhibition of the tube formation of human endothelial cells (results given under Example 14, Endothelial Cell Migration Assay) [2] | inhibition of HCMV plaque formation as compared to the virus control experiment (HCMV strain AD169) | antiviral activity of positive control compound (HCMV) (HCMV strain AD169; positive control, HCMV AD169) |
| --- | --- | --- | --- | --- | --- | --- | --- | --- | --- | --- | --- |
| CC(C)(C)NC(=O)[C@@H]1CN(Cc2cccnc2)CCN1C[C@@H](O)C[C@@H](Cc1ccccc1)C(=O)N[C@H]1c2ccccc2C[C@H]1O [indinavir] | expected levels of antiviral activity | – | – | – | – | – | – | – | – | – | – |
| Cc1cn([C@H]2C[C@H](N=[N+]=[N-])[C@@H](CO)O2)c(=O)[nH]c1=O [AZT] | expected levels of antiviral activity | – | – | – | – | – | – | – | – | – | – |
| Asp-Asn-Pro-Ser-Leu-Ser-Ile-Asp-Leu-Thr-Phe-His-Leu-Leu-Arg-Thr-Leu-Leu-Glu-Leu-Ala-Arg-Thr-Gln-Ser-Gln-Arg-Glu-Arg-Ala-Glu-Gln-Asn-Arg- Ile-Ile-Phe-Asp-Ser-Val-NH2 (DNPSLSIDLTFHLLRTLLELARTQSQRERAEQNRIIFDSV-NH2) [Peptide 1] | – | 63.0 | no inhibitory or activating effects | 29.0 % of control | 168.1 % of control | 111.6 % of control | 68.0 % of control | 84.8 % of control | 39% | did not inhibit | – |
| Nc1nc(O)c2ncn(COC(CO)CO)c2n1 [Ganciclovir, reference compound] | – | – | – | – | – | – | – | – | – | – | expected levels of antiviral activity |
| Ser-Glu-Glu-Pro-Pro-Ile-Ser-Leu-Asp-Leu-Thr-Phe-His-Leu-Leu-Arg-Glu-Val-Leu-Glu-Met-Ala-Arg-Ala-Glu-Gln-Leu-Ala-Gln-Gln-Ala-His-Ser-Asn- Arg-Lys-Leu-Met-Glu-Ile-Ile-NH2 (SEEPPISLDLTFHLLREVLEMARAEQLAQQAHSNRKLMEII-NH2) [Peptide 2] | – | 57.2 | 34.3% | 144.1 % of control | 166.5 % of control | 178.1 % of control | 7.0 % of control | 138.1 % of control | did not inhibit | did not inhibit | – |
